Paper PMC12133982, “Predominant T-cell epitopes of SARS-CoV-2 restricted by multiple prevalent HLA-B and HLA-C allotypes in Northeast Asia” (Frontiers in Immunology, 2025)
Peptide text beside a SMILES is read from it.

Legend:
[1] = molecular target: HLA-B1502 (Homo sapiens, UniProt P01889, A329T/A93T/A95T/C349S/D201E/D98Y/E187L/E204Q/E69M/E70A/H137Y/K202T/L119I/Q94N/R155S/R180L/S121R/S35A/S48A/T118I/V306I/V36M/Y140S/Y91S); assay: Competitive peptide binding assay, CIR-B1502; conditions: HMy2.CIR-B1502 cells, reference Cy5-[…], class from inhibition at 5 and 15 μM, flow cytometry MFI; read-out: Binding affinity with HLA-B1502
Method: (§1) Then, competitive peptide binding assays were performed.

[2] = molecular target: HLA-B4601 (Homo sapiens, UniProt P01889, A329T/A93R/C349S/D201E/E100V/E187L/E204Q/E69M/E70A/I90K/K202T/N87E/R155S/R180W/S121R/S35A/S48A/V306I/V36M/Y140S); assay: Competitive peptide binding assay, CIR-B4601; conditions: for IC50: HMy2.CIR-B4601 cells, reference Cy5-[…], class from inhibition at 5 and 15 μM, flow cytometry MFI, read-out: Binding affinity with HLA-B4601; for inhibition at 5 µM: read-out: Inhibition % of Cy5-reference peptide binding, CIR-B4601, 5μM peptide; for inhibition at 15 µM: read-out: Inhibition % of Cy5-reference peptide binding, CIR-B4601, 15μM peptide
Method: as §1

[3] = molecular target: HLA-B1301 (Homo sapiens, UniProt P01889, A65T/A93T/A95T/D138N/D201E/D98Y/E176V/E204Q/E69M/E70A/G107R/K202T/L105A/L119I/N104T/N87E/Q94N/R106L/R155S/R169L/R180L/S101N/S121R/S35A/S48T/T118I/V127L/V36M/Y140L/Y91S); assay: Competitive peptide binding assay, CIR-B1301; conditions: HMy2.CIR-B1301 cells, reference Cy5-[…], class from inhibition at 5 and 15 μM, flow cytometry MFI; read-out: Binding affinity with HLA-B1301
Method: as §1

[4] = molecular target: HLA-B5101 (Homo sapiens, UniProt P01889, A329T/A93T/A95T/C349S/D138N/D201E/D98Y/E187L/E204Q/E69T/G107R/I218V/K202T/L105A/L119W/N104I/Q94N/R106L/R155S/R180L/S101N/S121T/S35A/S48A/V306I/V36M/Y195H/Y91F); assay: Competitive peptide binding assay, CIR-B5101; conditions: HMy2.CIR-B5101 cells, reference Cy5-[…], class from inhibition at 5 and 15 μM, flow cytometry MFI; read-out: Binding affinity with HLA-B5101
Method: as §1

[5] = molecular target: HLA-B5801 (Homo sapiens, UniProt P01889, A329T/C349S/D201E/D98Y/E176V/E187L/E204Q/E69T/G107R/I218V/I90N/K202T/L105A/L119I/N104I/N87E/Q89R/Q94S/R106L/R155S/R180L/R86G/S101N/S121R/S35A/S48A/T118I/V127L/V306I/V36M/Y140S/Y91M); assay: Competitive peptide binding assay, CIR-B5801; conditions: HMy2.CIR-B5801 cells, reference Cy5-[…], class from inhibition at 5 and 15 μM, flow cytometry MFI; read-out: Binding affinity with HLA-B5801
Method: as §1

[6] = molecular target: HLA-B3501 (Homo sapiens, UniProt P01889, A329T/A93T/A95T/C349S/D201E/D98Y/E176V/E187L/E204Q/E69T/I218V/K202T/L119I/Q94N/R155S/R180L/S121R/S35A/S48A/T118I/V127L/V306I/V36M/Y140S/Y91F); assay: Competitive peptide binding assay, CIR-B3501; conditions: HMy2.CIR-B3501 cells, reference Cy5-[…], class from inhibition at 5 and 15 μM, flow cytometry MFI; read-out: Binding affinity with HLA-B3501
Method: as §1

[7] = molecular target: HLA-B1501 (Homo sapiens, UniProt P01889, A329T/A93T/A95T/C349S/D201E/D98Y/E187L/E204Q/E69M/E70A/K202T/N87E/Q94N/R155S/R180W/S121R/S35A/S48A/V306I/V36M/Y140S/Y91S); assay: Competitive peptide binding assay, CIR-B1501; conditions: HMy2.CIR-B1501 cells, reference Cy5-[…], class from inhibition at 5 and 15 μM, flow cytometry MFI; read-out: Binding affinity with HLA-B1501
Method: as §1

[8] = molecular target: HLA-B4001 (Homo sapiens, UniProt P01889, A65T/A93T/A95T/D138N/D98Y/E176V/E69K/N87E/Q56L/Q94N/R180L/S121R/S35A/S48T/T167S/V36M/W171L/Y33H/Y91S); assay: Competitive peptide binding assay, CIR-B4001; conditions: HMy2.CIR-B4001 cells, reference Cy5-[…], class from inhibition at 5 and 15 μM, flow cytometry MFI; read-out: Binding affinity with HLA-B4001
Method: as §1

[9] = molecular target: HLA-B1302 (Homo sapiens, UniProt P01889, A65T/A93T/A95T/D138N/D201E/D98Y/E176V/E204Q/E69M/E70A/G107R/K202T/L105A/L119W/N104T/N87E/Q94N/R106L/R155S/R169L/R180L/S101N/S121T/S35A/S48T/V127L/V36M/Y140L/Y91S); assay: Competitive peptide binding assay, CIR-B1302; conditions: HMy2.CIR-B1302 cells, reference Cy5-MMWYWGPSL, class from inhibition at 5 and 15 μM, flow cytometry MFI; read-out: Binding affinity with HLA-B1302
Method: as §1

[10] = molecular target: HLA-B4801 (Homo sapiens, UniProt P01889, A269T/A93T/A95T/D138N/D98Y/E176V/N87E/Q94N/R180L/T167S/W171L/Y91S); assay: Competitive peptide binding assay, CIR-B4801; conditions: HMy2.CIR-B4801 cells, reference Cy5-[…], class from inhibition at 5 and 15 μM, flow cytometry MFI; read-out: Binding affinity with HLA-B4801
Method: as §1

[11] = molecular target: T1, HLA-B0702 (Homo sapiens, UniProt P01889); assay: Competitive peptide binding assay, CIR-B0702; conditions: HMy2.CIR-B0702 cells, reference Cy5-[…], class from inhibition at 5 and 15 μM, flow cytometry MFI
T1 construct: expressed in transfected cells; host or cells: HMy2.CIR
Method: as §1

[12] = molecular target: HLA-B4403 (Homo sapiens, UniProt P01889, A223V/A65T/A93T/A95T/D201E/D98Y/E176V/E187L/E204Q/E69K/G107R/H137Y/K202T/L105A/L119I/N104T/N87E/Q56L/Q94N/R106L/R155S/R180L/S101N/S121R/S35A/S48T/T118I/V36M/W191S/Y140D/Y91S); assay: Competitive peptide binding assay, CIR-B4403; conditions: HMy2.CIR-B4403 cells, reference Cy5-CYMEAVAL, class from inhibition at 5 and 15 μM, flow cytometry MFI; read-out: Binding affinity with HLA-B4403
Method: as §1

| SMILES | IC50 [1] [µM] | IC50 [2] [µM] | inhibition at 5 µM [2] [%] | inhibition at 15 µM [2] [%] | IC50 [3] [µM] | IC50 [4] [µM] | IC50 [5] [µM] | IC50 [6] [µM] | IC50 [7] [µM] | IC50 [8] [µM] | IC50 [9] [µM] | IC50 [10] [µM] | IC50 [11] [µM] | IC50 [12] [µM] |
| --- | --- | --- | --- | --- | --- | --- | --- | --- | --- | --- | --- | --- | --- | --- |
| CSCC[C@H](NC(=O)[C@H](CCSC)NC(=O)[C@H](CO)NC(=O)[C@H](Cc1ccccc1)NC(=O)[C@H](Cc1c[nH]cn1)NC(=O)[C@H](CCCCN)NC(=O)[C@H](CCCNC(=N)N)NC(=O)[C@H](CC(C)C)NC(=O)[C@@H](N)Cc1ccc(O)cc1)C(=O)O [Epitope Y28] (H-YLRKHFSMM-OH; N-terminus and C-terminus assumed) | > 15 | < 5 | 85.7 | 91.8 | > 15 | > 15 | > 15 | 5 to 15 | < 5 |  |  |  |  |  |
| CC(C)C[C@H](NC(=O)[C@H](Cc1c[nH]cn1)NC(=O)[C@H](Cc1ccccc1)NC(=O)[C@@H](NC(=O)[C@H](CC(=O)O)NC(=O)[C@H](C)NC(=O)[C@H](Cc1ccc(O)cc1)NC(=O)[C@H](CCC(=O)O)NC(=O)[C@@H](N)CCC(N)=O)C(C)C)C(=O)O [Epitope Y71] (H-QEYADVFHL-OH; N-terminus and C-terminus assumed) |  |  |  |  |  | > 15 | > 15 | 5 to 15 | 5 to 15 | 5 to 15 | > 15 |  |  |  |
| CC[C@H](C)[C@H](NC(=O)[C@@H]1CCCN1C(=O)[C@@H]1CCCN1C(=O)[C@@H](NC(=O)[C@H](CCCCN)NC(=O)[C@H](Cc1ccc(O)cc1)NC(=O)[C@@H](NC(=O)[C@H](CCC(N)=O)NC(=O)[C@@H](N)CCCCN)[C@@H](C)CC)[C@@H](C)O)C(=O)O [Epitope Y82] (H-KQIYKTPPI-OH; N-terminus and C-terminus assumed) | > 15 |  |  |  |  | > 15 | 5 to 15 | < 5 | > 15 |  |  |  |  |  |
| CC(C)C[C@H](N)C(=O)N[C@H](C(=O)N[C@@H](CCCCN)C(=O)N1CCC[C@H]1C(=O)N[C@@H](CO)C(=O)N[C@@H](Cc1ccccc1)C(=O)N[C@@H](Cc1ccc(O)cc1)C(=O)N[C@H](C(=O)N[C@@H](Cc1ccc(O)cc1)C(=O)O)C(C)C)C(C)C [Epitope Y125] (H-LVKPSFYVY-OH; N-terminus and C-terminus assumed) | > 15 |  |  |  |  |  | 5 to 15 |  | < 5 |  | > 15 | > 15 |  |  |
| CC[C@H](C)[C@H](NC(=O)[C@H](CC(N)=O)NC(=O)[C@H](CCCCN)NC(=O)[C@H](Cc1ccccc1)NC(=O)[C@@H](NC(=O)[C@@H](N)Cc1ccccc1)C(C)C)C(=O)N[C@@H](CC(=O)O)C(=O)NCC(=O)N[C@@H](Cc1ccc(O)cc1)C(=O)O [Epitope Y172] (H-FVFKNIDGY-OH; N-terminus and C-terminus assumed) | 5 to 15 | > 15 |  |  | > 15 | > 15 | < 5 | 5 to 15 | < 5 | > 15 | > 15 |  | > 15 | > 15 |
| CSCC[C@H](NC(=O)[C@H](CCCCN)NC(=O)CN)C(=O)N[C@@H](CCCCN)C(=O)N[C@@H](CC(=O)O)C(=O)N[C@@H](CC(C)C)C(=O)N[C@@H](CO)C(=O)N1CCC[C@H]1C(=O)N[C@@H](CCCNC(=N)N)C(=O)N[C@@H](Cc1c[nH]c2ccccc12)C(=O)O [Epitope Y224] (H-GKMKDLSPRW-OH; N-terminus and C-terminus assumed) |  | > 15 | 32.3 | 52.3 | > 15 |  |  | > 15 | > 15 |  |  | 5 to 15 |  |  |
| CC[C@H](C)[C@H](NC(=O)[C@H](C)NC(=O)CNC(=O)[C@@H](NC(=O)[C@H](Cc1ccc(O)cc1)NC(=O)[C@@H](NC(=O)[C@@H](N)CC(C)C)[C@@H](C)O)[C@@H](C)O)C(=O)N[C@@H](CCCCN)C(=O)N[C@@H](CC(C)C)C(=O)O [Epitope Y243] (H-LTYTGAIKL-OH; N-terminus and C-terminus assumed) | > 15 | < 5 | 77.3 | 94 | > 15 |  |  | > 15 | > 15 |  |  | > 15 |  |  |
| CC[C@H](C)[C@H](NC(=O)[C@@H](NC(=O)[C@H](CC(N)=O)NC(=O)[C@H](CCCNC(=N)N)NC(=O)[C@H](CCCCN)NC(=O)[C@@H](NC(=O)[C@H](Cc1ccc(O)cc1)NC(=O)[C@H](C)NC(=O)[C@@H](N)Cc1ccccc1)[C@@H](C)O)C(C)C)C(=O)O [Epitope Y276] (H-FAYTKRNVI-OH; N-terminus and C-terminus assumed) | > 15 |  |  |  | < 5 | 5 to 15 |  | > 15 | > 15 |  |  |  |  |  |
| CC[C@H](C)[C@H](NC(=O)[C@H](CC(=O)O)NC(=O)[C@H](CCCNC(=N)N)NC(=O)CNC(=O)[C@H](Cc1ccccc1)NC(=O)[C@H](CCC(N)=O)NC(=O)[C@H](CCC(N)=O)NC(=O)[C@H](Cc1ccccc1)NC(=O)[C@@H]1CCCN1C(=O)[C@@H](N)CC(C)C)C(=O)O [Epitope Y282] (H-LPFQQFGRDI-OH; N-terminus and C-terminus assumed) | > 15 |  |  |  | > 15 |  |  |  | 5 to 15 |  |  | > 15 |  |  |
